# Results taken from patent US11713338B2, “Cyclic peptides multimers targeting α-4-β-7 integrin” (priority 2016, dated 2023).
# What was measured:
# [1] = target: T1, recombinant integrin α4β7 (Homo sapiens, UniProt P13612+P26010, DEL724-798); assay: Integrin α4β7—MAdCAM-1 ELISA competition assay; assay type: binding; conditions: read-out: ELISA α4β7 Assay IC50
# T1 construct: purchased R&D Systems 5397-A3-050
# T1 sequence (P13612 34-970 limits assumed): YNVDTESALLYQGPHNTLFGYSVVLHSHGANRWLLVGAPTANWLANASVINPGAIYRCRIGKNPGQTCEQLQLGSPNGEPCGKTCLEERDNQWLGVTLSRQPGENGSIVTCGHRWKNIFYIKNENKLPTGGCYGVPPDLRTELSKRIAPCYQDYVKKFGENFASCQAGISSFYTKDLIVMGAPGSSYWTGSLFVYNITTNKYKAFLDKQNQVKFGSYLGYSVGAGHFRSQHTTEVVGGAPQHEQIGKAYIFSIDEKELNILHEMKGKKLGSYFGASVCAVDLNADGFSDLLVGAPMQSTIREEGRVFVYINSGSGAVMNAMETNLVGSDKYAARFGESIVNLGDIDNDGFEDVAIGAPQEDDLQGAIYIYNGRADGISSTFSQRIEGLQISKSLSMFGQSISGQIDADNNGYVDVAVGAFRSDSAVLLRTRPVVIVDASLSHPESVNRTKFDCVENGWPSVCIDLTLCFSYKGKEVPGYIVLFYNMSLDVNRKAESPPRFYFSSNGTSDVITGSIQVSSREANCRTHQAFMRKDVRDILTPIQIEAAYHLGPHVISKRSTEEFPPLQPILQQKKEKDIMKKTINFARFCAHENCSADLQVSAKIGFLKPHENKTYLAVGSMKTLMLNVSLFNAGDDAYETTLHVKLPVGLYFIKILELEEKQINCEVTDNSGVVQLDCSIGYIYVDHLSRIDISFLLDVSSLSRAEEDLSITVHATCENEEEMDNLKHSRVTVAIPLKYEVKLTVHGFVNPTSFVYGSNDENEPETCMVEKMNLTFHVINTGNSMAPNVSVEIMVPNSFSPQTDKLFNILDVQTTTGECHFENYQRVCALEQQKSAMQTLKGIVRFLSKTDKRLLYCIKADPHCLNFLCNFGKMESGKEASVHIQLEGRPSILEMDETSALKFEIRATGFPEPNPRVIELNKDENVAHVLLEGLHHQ
# T1 sequence (P26010 20-723 limits assumed): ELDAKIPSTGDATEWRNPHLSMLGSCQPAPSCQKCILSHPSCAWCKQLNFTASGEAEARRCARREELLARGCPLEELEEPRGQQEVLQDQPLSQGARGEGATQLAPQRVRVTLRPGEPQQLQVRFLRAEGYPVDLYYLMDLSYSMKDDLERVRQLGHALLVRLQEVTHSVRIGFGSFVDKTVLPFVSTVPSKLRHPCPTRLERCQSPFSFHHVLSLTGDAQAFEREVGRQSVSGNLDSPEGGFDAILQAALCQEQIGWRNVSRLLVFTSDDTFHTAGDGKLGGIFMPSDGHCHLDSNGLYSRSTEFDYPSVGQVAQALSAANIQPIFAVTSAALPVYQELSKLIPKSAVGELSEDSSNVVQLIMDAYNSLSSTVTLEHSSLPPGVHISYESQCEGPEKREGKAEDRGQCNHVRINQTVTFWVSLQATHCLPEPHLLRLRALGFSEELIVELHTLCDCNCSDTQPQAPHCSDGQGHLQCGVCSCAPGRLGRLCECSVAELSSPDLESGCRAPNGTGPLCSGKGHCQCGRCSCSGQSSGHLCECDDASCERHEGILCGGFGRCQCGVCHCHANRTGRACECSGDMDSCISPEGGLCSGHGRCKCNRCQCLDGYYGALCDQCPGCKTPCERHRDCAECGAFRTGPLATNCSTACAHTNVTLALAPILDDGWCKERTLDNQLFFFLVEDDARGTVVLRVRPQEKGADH
# [2] = target: T2, integrin α4β1 (RAMOS human cells adhering to VCAM-1) (Homo sapiens, UniProt P05556+P13612); assay: Integrin α4β1-VCAM cell adhesion assay (RAMOS cells); assay type: cell-based; conditions: for IC50: Ramos cells adhering to VCAM, read-out: Ramos Adhesion α4β1/VCAM IC50; for Ratio Ramos/RPMI: ratio of cell adhesion IC50s, Ramos α4β1/VCAM over RPMI8866 α4β7/MAdCAM
# T2 construct: Ramos cells, which express integrin α4β1; host or cells: RAMOS
# In short: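 Human RAMOS cells loaded with calcein ([…] in PBS, 37° C, 30 min) allowed to adhere to VCAM-1-coated wells blocked with 1% milk. After PBS washes, adherent-cell fluorescence measured and cell-free well background subtracted to build dose-response.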
# T2 sequence (P13612 34-1032): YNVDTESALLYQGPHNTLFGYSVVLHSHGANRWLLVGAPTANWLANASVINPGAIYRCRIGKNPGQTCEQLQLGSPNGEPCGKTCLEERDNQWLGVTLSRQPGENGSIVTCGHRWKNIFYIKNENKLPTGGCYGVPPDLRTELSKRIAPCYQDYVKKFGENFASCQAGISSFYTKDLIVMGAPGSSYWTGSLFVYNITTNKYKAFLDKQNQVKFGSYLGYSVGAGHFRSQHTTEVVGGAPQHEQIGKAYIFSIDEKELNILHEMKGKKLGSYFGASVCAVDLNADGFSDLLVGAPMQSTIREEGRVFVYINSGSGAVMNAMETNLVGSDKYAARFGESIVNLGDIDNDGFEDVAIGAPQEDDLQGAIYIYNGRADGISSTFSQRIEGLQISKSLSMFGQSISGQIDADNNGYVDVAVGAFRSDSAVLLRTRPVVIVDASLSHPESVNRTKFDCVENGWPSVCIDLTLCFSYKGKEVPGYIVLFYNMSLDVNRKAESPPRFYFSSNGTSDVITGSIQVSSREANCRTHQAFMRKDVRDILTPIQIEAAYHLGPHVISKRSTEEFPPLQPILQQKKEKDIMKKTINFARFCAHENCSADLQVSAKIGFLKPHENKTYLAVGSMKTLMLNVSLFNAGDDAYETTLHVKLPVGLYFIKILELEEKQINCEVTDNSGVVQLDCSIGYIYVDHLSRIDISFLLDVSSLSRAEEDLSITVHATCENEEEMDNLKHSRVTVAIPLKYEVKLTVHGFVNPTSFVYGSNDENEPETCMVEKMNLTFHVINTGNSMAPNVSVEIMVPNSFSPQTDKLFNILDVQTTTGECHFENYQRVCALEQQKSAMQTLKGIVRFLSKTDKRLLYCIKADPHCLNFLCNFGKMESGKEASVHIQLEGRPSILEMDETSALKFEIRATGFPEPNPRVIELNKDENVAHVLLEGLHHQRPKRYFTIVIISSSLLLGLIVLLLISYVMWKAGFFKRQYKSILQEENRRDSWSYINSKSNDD
# T2 sequence (P05556 21-798): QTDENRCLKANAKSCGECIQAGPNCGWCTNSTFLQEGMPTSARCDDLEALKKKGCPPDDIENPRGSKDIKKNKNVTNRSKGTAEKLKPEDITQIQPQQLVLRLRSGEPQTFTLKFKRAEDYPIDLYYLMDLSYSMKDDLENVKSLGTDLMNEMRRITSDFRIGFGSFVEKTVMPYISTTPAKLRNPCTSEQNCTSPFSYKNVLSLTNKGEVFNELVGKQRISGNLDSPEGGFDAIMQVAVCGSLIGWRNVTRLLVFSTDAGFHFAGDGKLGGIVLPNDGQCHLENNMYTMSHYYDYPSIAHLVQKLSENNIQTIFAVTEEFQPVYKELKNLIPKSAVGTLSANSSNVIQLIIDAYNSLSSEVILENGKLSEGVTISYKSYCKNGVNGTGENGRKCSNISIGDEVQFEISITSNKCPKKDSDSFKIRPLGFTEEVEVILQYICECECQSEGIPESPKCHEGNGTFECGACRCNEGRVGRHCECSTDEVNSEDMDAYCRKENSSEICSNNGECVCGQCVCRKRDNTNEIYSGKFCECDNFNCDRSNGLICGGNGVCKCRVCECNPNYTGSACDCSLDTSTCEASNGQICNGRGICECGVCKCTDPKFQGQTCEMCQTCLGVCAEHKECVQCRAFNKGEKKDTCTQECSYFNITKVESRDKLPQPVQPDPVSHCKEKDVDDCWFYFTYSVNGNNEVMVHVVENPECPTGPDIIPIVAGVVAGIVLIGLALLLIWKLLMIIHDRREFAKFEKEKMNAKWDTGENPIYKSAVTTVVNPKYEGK
Compound,IC50 [1] [nM],IC50 [2] [nM],Ratio Ramos/RPMI [2]
CC(C)C[C@@H]1NC(=O)c2ccc(-c3ccc(N4CCN(C(=O)CCOCCOCCNC(=O)CCCCCC(=O)NCCOCCOCCC(=O)N5CCN(c6ccc(-c7ccc8cc7CNC(=O)[C@@H]7CCCN7[C@H](C(=O)NC(C)(C)C)[C@H](C)NC(=O)[C@H]([C@@H](C)O)NC(=O)[C@H](CC(=O)O)NC(=O)[C@H](CC(C)C)NC8=O)cc6)CC5)CC4)cc3)c(c2)CNC(=O)[C@@H]2CCCN2[C@H](C(=O)NC(C)(C)C)[C@H](C)NC(=O)[C@H]([C@@H](C)O)NC(=O)[C@H](CC(=O)O)NC1=O [Compound 505],19,1780,30
CC(C)C[C@@H]1NC(=O)c2ccc(-c3ccc(N4CCN(C(=O)CCOCCOCCOCCOCCOCCOCCOCCOCCOCCOCCC(=O)N5CCN(c6ccc(-c7ccc8cc7CNC(=O)[C@@H]7CCCN7[C@H](C(=O)NC(C)(C)C)[C@H](C)NC(=O)[C@H]([C@@H](C)O)NC(=O)[C@H](CC(=O)O)NC(=O)[C@H](CC(C)C)NC8=O)cc6)CC5)CC4)cc3)c(c2)CNC(=O)[C@@H]2CCCN2[C@H](C(=O)NC(C)(C)C)[C@H](C)NC(=O)[C@H]([C@@H](C)O)NC(=O)[C@H](CC(=O)O)NC1=O [Compound 511],11,3990,133
CC(C)C[C@@H]1NC(=O)c2ccc(-c3ccc(N4CCN(Cc5cc(CN6CCN(c7ccc(-c8ccc9cc8CNC(=O)[C@@H]8CCCN8[C@H](C(=O)NC(C)(C)C)[C@H](C)NC(=O)[C@H]([C@@H](C)O)NC(=O)[C@H](CC(=O)O)NC(=O)[C@H](CC(C)C)NC9=O)cc7)CC6)cc(CN6CCN(c7ccc(-c8ccc9cc8CNC(=O)[C@@H]8CCCN8[C@H](C(=O)NC(C)(C)C)[C@H](C)NC(=O)[C@H]([C@@H](C)O)NC(=O)[C@H](CC(=O)O)NC(=O)[C@H](CC(C)C)NC9=O)cc7)CC6)c5)CC4)cc3)c(c2)CNC(=O)[C@@H]2CCCN2[C@H](C(=O)NC(C)(C)C)[C@H](C)NC(=O)[C@H]([C@@H](C)O)NC(=O)[C@H](CC(=O)O)NC1=O [Compound 518],36,947,–
CC(C)C[C@@H]1NC(=O)C[C@H](CCCCN)N(C)C(=O)[C@H](CCCCNC(=O)CCCCCCCCC(=O)NCCCC[C@@H]2NC(=O)[C@@H]3CCCN3[C@H](C(=O)NC(C)(C)C)[C@H](C)NC(=O)[C@H]([C@@H](C)O)NC(=O)[C@H](CC(=O)O)NC(=O)[C@H](CC(C)C)NC(=O)C[C@H](CCCCN)N(C)C2=O)NC(=O)[C@@H]2CCCN2[C@H](C(=O)NC(C)(C)C)[C@H](C)NC(=O)[C@H]([C@@H](C)O)NC(=O)[C@H](CC(=O)O)NC1=O [Compound 530],5.3,10600,704
CC(C)C[C@@H]1NC(=O)C[C@H](CCCCN)N(C)C(=O)[C@H](CCCCNC(=O)CCCCCC(=O)NCCCC[C@@H]2NC(=O)[C@@H]3CCCN3[C@H](C(=O)NC(C)(C)C)[C@H](C)NC(=O)[C@H]([C@@H](C)O)NC(=O)[C@H](CC(=O)O)NC(=O)[C@H](CC(C)C)NC(=O)C[C@H](CCCCN)N(C)C2=O)NC(=O)[C@@H]2CCCN2[C@H](C(=O)NC(C)(C)C)[C@H](C)NC(=O)[C@H]([C@@H](C)O)NC(=O)[C@H](CC(=O)O)NC1=O [Compound 532],6.1,7150,–
CC(C)C[C@@H]1NC(=O)C[C@H](CCCCN)N(C)C(=O)[C@H](CCCCNC(=O)CCCCCCCC(=O)NCCCC[C@@H]2NC(=O)[C@@H]3CCCN3[C@H](C(=O)NC(C)(C)C)[C@H](C)NC(=O)[C@H]([C@@H](C)O)NC(=O)[C@H](CC(=O)O)NC(=O)[C@H](CC(C)C)NC(=O)C[C@H](CCCCN)N(C)C2=O)NC(=O)[C@@H]2CCCN2[C@H](C(=O)NC(C)(C)C)[C@H](C)NC(=O)[C@H]([C@@H](C)O)NC(=O)[C@H](CC(=O)O)NC1=O [Compound 533],5,4230,257
CC(C)C[C@@H]1NC(=O)C[C@H](CCCCN)N(C)C(=O)[C@H](CCCCNC(=O)c2ccccc2-c2ccccc2C(=O)NCCCC[C@@H]2NC(=O)[C@@H]3CCCN3[C@H](C(=O)NC(C)(C)C)[C@H](C)NC(=O)[C@H]([C@@H](C)O)NC(=O)[C@H](CC(=O)O)NC(=O)[C@H](CC(C)C)NC(=O)C[C@H](CCCCN)N(C)C2=O)NC(=O)[C@@H]2CCCN2[C@H](C(=O)NC(C)(C)C)[C@H](C)NC(=O)[C@H]([C@@H](C)O)NC(=O)[C@H](CC(=O)O)NC1=O [Compound 535],8.6,9510,634
CC(C)C[C@@H]1NC(=O)C[C@H](CCCCN)N(C)C(=O)[C@H](CCCCNC(=O)CCOCCOCCOCCOCCOCCOCCOCCC(=O)NCCCC[C@@H]2NC(=O)[C@@H]3CCCN3[C@H](C(=O)NC(C)(C)C)[C@H](C)NC(=O)[C@H]([C@@H](C)O)NC(=O)[C@H](CC(=O)O)NC(=O)[C@H](CC(C)C)NC(=O)C[C@H](CCCCN)N(C)C2=O)NC(=O)[C@@H]2CCCN2[C@H](C(=O)NC(C)(C)C)[C@H](C)NC(=O)[C@H]([C@@H](C)O)NC(=O)[C@H](CC(=O)O)NC1=O [Compound 536],9.5,7820,479
CC(C)C[C@@H]1NC(=O)C[C@H](CCCCN)N(C)C(=O)[C@H](CCCCNC(=O)c2cc(C(=O)NCCCC[C@@H]3NC(=O)[C@@H]4CCCN4[C@H](C(=O)NC(C)(C)C)[C@H](C)NC(=O)[C@H]([C@@H](C)O)NC(=O)[C@H](CC(=O)O)NC(=O)[C@H](CC(C)C)NC(=O)C[C@H](CCCCN)N(C)C3=O)cc(C(=O)NCCCC[C@@H]3NC(=O)[C@@H]4CCCN4[C@H](C(=O)NC(C)(C)C)[C@H](C)NC(=O)[C@H]([C@@H](C)O)NC(=O)[C@H](CC(=O)O)NC(=O)[C@H](CC(C)C)NC(=O)C[C@H](CCCCN)N(C)C3=O)c2)NC(=O)[C@@H]2CCCN2[C@H](C(=O)NC(C)(C)C)[C@H](C)NC(=O)[C@H]([C@@H](C)O)NC(=O)[C@H](CC(=O)O)NC1=O [Compound 538],10,7650,–
